In article PMC11758220, “Identification of a Privileged Scaffold for Inhibition of Sterol Transport Proteins through the Synthesis and Ring Distortion of Diverse, Pseudo-Natural Products” (ACS Central Science, 2025):

Legend:
Format in all cases: binding
STARD5 = molecular target: T1, STARD5 (Homo sapiens, UniProt Q9NSY2); test: Differential scanning fluorimetry (DSF), STARD5; conditions: for ΔTm at 10 µM / STARD5 (DSF) ΔTm: single dose, Dose = 10 µM; for Kd: apparent Kd, mean of three experiments run in technical duplicates, read-out: STARD5 Kd,app (DSF); for STARD5 (DSF) ΔTmmax: maximal thermal shift
T1 construct: STARD5(6-213); host or cells: E. coli BL21(DE3)
T1 sequence (Q9NSY2 6-213): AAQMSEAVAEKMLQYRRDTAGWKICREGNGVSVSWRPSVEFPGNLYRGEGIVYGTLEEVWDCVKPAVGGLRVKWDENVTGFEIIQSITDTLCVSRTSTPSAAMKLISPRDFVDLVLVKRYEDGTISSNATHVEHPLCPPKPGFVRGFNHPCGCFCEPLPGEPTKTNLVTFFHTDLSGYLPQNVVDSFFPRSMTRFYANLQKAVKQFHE
From the text: (§1) Protein expression constructs
(§2) Human ASTER domains of Aster-A(359-547), -B(364-552) and -C(318-504) were subcloned into a pGEX-6p-2rbs vector, thus introducing the cloning artifact ‘GPLGS’.3 The pGEX-6P-1-GST-OSBP(377- […]
(§3) a gift from James H. Hurley (University of California).4 The pHIS_2His6_Thrombin_STARD4(2-205;C75S) plasmid was a gift from Young Jun Im (Chonnam National University).5 STARD5A was a gift from Nicola Burgess-Brown (Addgene plasmid #42392; http://n2t.net/addgene:42392; […]
(§4) Protein expression and purification […]
(§5) vectors including an N-terminal PreScission-cleavable glutathione S-transferase (GST)-tag were expressed in Escherichia coli (E. coli) OverExpress C41 in Terrific Broth (TB) medium for 16 h at 18 °C after the induction with 0.1 mM isopropyl β-D-1-thiogalactopyranoside (IPTG). Cells were harvested at 3500 × g for 15 minutes and lysed by sonication in buffer containing 50 mM HEPES pH 7.5, 300 mM NaCl, 10 %v/v glycerol, 5 mM dithiothreitol (DTT), 0.1 %v/v Triton X-100 and protease inhibitor mix HP plus (Serva). The lysate was purified by affinity chromatography on a GSTrap FF column (Cytiva) using an ÄKTA Start (Cytiva) in buffer containing 50 mM HEPES pH 7.5, 300 mM NaCl, 10 %v/v glycerol, 5 mM DTT and 0.01 %v/v Triton X-100. The GST-tag was cleaved overnight on the column at 4 °C. The Aster sterol binding domains were further purified by size-exclusion chromatography (SEC) on a HiLoad 16/600 Superdex 75 pg (Cytiva) in buffer containing 20 mM HEPES pH 7.5, 300 mM NaCl, 10 %v/v […]
(§6) STARD5(6-213) harboring an N-terminal His6-Tag were expressed in E. coli BL21(DE3) in Luria-Bertani Broth (LB) medium for approximately 16 h at 18 °C after induction with 0.15 mM IPTG. Cells were harvested at 3500 × g for 15 minutes and lysed by sonication in buffer containing 50 mM HEPES pH 7.5, 150 mM NaCl, 5 %v/v glycerol, 5 mM DTT, 0.1 %v/v Triton X -100 and ethylenediaminetetraacetic acid (EDTA)-free protease inhibitor cocktail (Sigma-Aldrich). The cleared lysate was purified by affinity chromatography on a Ni-NTA Superflow Cartridge (Qiagen) using an ÄKTA Start (Cytiva) in buffer containing 50 mM HEPES pH 7.5, 150 mM NaCl, 5 %v/v glycerol, 5 mM DTT. START domains were eluted by using elution buffer containing 50 mM HEPES pH 7.5, 150 mM NaCl, 5 %v/v glycerol, 5 mM DTT and 500 mM imidazole. Proteins were further purified by SEC on a HiLoad 16/600 Superdex 75 pg (Cytiva) in buffer containing 20 mM HEPES pH 7.5, 150 mM NaCl, 5 %v/v glycerol and 2 mM DTT.
(§7) The ORP domain of human OSBP(377-807) in the pGEX-6p-1 vector with an N-terminal PreScission-cleavable GST-tag was expressed in E. coli OverExpress C41 in LB medium for 16 h at 18 °C after induction with 0.1 mM IPTG. Cells were harvested at 3500 × g for 15 minutes and lysed by sonication in buffer containing 20 mM HEPES pH 7.5, 300 mM NaCl, 10 %v/v glycerol, 5 mM DTT, 0.1 %v/v Triton X-100 and EDTA-free protease inhibitor cocktail (Sigma-Aldrich). The cleared lysate was purified by affinity chromatography on a GSTrap HF column (Cytiva) using an ÄKTA Start (Cytiva) in buffer containing 20 mM HEPES pH 7.5, 300 mM NaCl, 10 %v/v glycerol, 5 mM DTT. OSBP(377 -807) was eluted by using elution buffer containing 20 mM HEPES pH 7.5, 300 mM NaCl, 10 %v/v glycerol, 5 mM DTT and 10 mM reduced glutathione. Proteins were further purified by SEC on a HiLoad 16/600 Superdex 75 pg (Cytiva) using an ÄKTA Explorer (Cytiva) in buffer containing 20 mM HEPES pH 7.5, 150 mM NaCl, 10 %v/v glycerol and 2 mM DTT.
(§8) The ORP domains of human ORP1(534-950) in pET24b(+) and ORP2(49-480) in the pET24b(+) vector including an N-terminal His6-Tag were expressed in E. coli BL21(DE3) in TB medium for approximately 16 h at 18 °C after induction with 0.1 mM IPTG. Cells were collected at 3500 × g for 15 minutes and lysed by sonification in buffer containing 10 mM Tris-HCl pH 8, 300 mM NaCl, 5 % glycerol, 2 mM DTT, 0.1 % Triton X-100 and EDTA-free protease inhibitor cocktail (Sigma-Aldrich). The cleared […]

ORP1 = molecular target: T2, ORP1 (Homo sapiens, UniProt Q9BXW6); test: Fluorescence polarisation (FP) competition with NBD-cholesterol, ORP1; conditions: for inhibition at 10 µM / ORP1 (FP) inhibition: single dose, Dose = 10 µM; for IC50: mean of three experiments run in technical duplicates
T2 construct: ORP1(534-950); host or cells: E. coli BL21(DE3)
T2 sequence (Q9BXW6 534-950): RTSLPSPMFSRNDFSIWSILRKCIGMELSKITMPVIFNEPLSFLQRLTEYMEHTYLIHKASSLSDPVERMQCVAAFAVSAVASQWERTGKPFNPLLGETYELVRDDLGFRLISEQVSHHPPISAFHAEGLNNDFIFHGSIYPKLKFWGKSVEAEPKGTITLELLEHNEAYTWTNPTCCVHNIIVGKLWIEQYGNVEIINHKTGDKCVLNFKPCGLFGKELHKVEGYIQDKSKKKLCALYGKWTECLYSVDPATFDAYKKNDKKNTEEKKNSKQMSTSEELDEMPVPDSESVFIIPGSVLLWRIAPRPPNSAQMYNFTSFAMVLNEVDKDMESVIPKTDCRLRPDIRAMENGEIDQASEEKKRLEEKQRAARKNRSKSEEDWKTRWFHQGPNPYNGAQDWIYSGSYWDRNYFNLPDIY
From the text: as §1, §2, §3, §4, §5, §6, §7, §8

Aster-C = molecular target: T3, Aster-C (Homo sapiens, UniProt Q8IYS0); test: Fluorescence polarisation (FP) competition with NBD-cholesterol, Aster-C; conditions: for inhibition at 10 µM / Aster-C (FP) inhibition: single dose, Dose = 10 µM; for IC50: mean of three experiments run in technical duplicates
T3 construct: -C(318-504); GST (PreScission-cleavable) (N, cleaved yes); made in house; host or cells: E. coli OverExpress C41
From the text: as §1, §2, §3, §4, §5, §6, §7, §8

T3 sequence (Q8IYS0 318-504): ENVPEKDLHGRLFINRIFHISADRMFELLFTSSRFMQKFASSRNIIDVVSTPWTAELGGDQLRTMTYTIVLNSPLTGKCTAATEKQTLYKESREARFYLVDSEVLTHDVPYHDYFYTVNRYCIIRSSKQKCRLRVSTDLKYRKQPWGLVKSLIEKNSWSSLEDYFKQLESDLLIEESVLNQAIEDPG

| Compound | ΔTm at 10 µM (STARD5) | inhibition at 10 µM (ORP1) | inhibition at 10 µM (Aster-C) | IC50 (Aster-C) | Kd (STARD5) | STARD5 (DSF) ΔTm (STARD5) | ORP1 (FP) inhibition (ORP1) | Aster-C (FP) inhibition (Aster-C) | STARD5 (DSF) ΔTmmax (STARD5) | IC50 (ORP1) |
| --- | --- | --- | --- | --- | --- | --- | --- | --- | --- | --- |
| CC12CCC(O)CC1CCc1c2[nH]c2ccc(C(F)(F)F)cc12 (centres unmarked) [Compound 10g] | 0.162 °C | 39.2% | -5% | – | – | – | – | – | – | – |
| CC12CCC3CC1CCC21C(=Nc2ccc(N4CCNCC4)cc21)O3 (centres unmarked) [Compound 22] | 0.211 °C | -7.5% | -1.6% | > 80 µM | – | – | – | – | – | – |
| C[C@]12CC[C@@H]3C[C@H]1CC[C@@]21C(=Nc2ccccc21)O3 [Compound 15a] | 1.3 °C | 10% | -4% | > 80 µM | > 100 µM | – | – | – | – | – |
| Cc1nc2c(s1)CC[C@@H]1C[C@H](O)CC[C@]21C [Compound 8b] | – | – | – | – | – | 0.175 °C | -2.5% | -1.6% | – | – |
| C[C@@]12CC[C@H]3C[C@@H]1CC[C@]21C(=Nc2ccc(Br)cc21)O3 [(−)-15b] | 0.4 °C | 68.3% | -0.8% | > 80 µM | > 100 µM | – | – | – | 1.3 °C | 15.3 µM |
| CC12CCC3CC1CCC21C(=Nc2ccc(Br)cc21)O3 (single isomer, unassigned; (+)) [(+)-15b] | -0.0628 °C | 0% | 0% | > 80 µM | > 100 µM | – | – | – | 1.1 °C | > 80 µM |
| COc1ccc2c(c1)[C@@]13CC[C@@H]4C[C@@H](CC[C@@]41C)OC3=N2 [Compound 15f] | 0.268 °C | 33.3% | 10% | > 80 µM | – | – | – | – | – | – |
| C[C@]12CC[C@@H](O)C[C@H]1CCC[C@]21NC(=O)c2ccccc2N1 [Compound 5a] | 0.0253 °C | -2.5% | 0% | – | – | 0.0773 °C | 0.0% | -4% | – | – |
| C[C@]12CC[C@@H](O)C[C@H]1CCc1nc3cc(Cl)c(Cl)cc3nc12 [Compound 7d] | – | – | – | – | – | -0.24 °C | 1.7% | -4% | – | – |
| CC12CCC3CC1CCC21C(=Nc2ccc(Cl)cc21)O3 (centres unmarked) [Compound 15c] | 0.56 °C | 40% | -4% | > 80 µM | – | – | – | – | – | – |
| COc1ccc2c(c1)C(=O)N[C@]1(CCC[C@@H]3C[C@H](O)CC[C@@]31C)N2 [Compound 5c] | 0.117 °C | 3.3% | – | – | – | 0.0259 °C | -5.0% | -3.2% | – | – |
| Cc1c2c(nc3ccccc13)[C@@]1(C)CC[C@@H](O)C[C@H]1CC2 [Compound 2a] | 0.4 °C | 53.3% | -2.4% | – | – | – | – | – | – | – |
| C[C@]12CC[C@@H](O)C[C@H]1CCc1nc3cc(F)c(F)cc3nc12 [Compound 7c] | – | – | – | – | – | 0.3 °C | -5.0% | -4% | – | – |
| COc1ccc2c(c1)C(=O)CC[C@@H]1C[C@H](O)CC[C@]1(C)C(=O)N2 [Compound 11d] | 0.0281 °C | -3.3% | 1.6% | – | – | – | – | – | – | – |
| Cc1cc(C)c2c(c1)N=C1[C@@]2(O)CC[C@@H]2C[C@H](O)CC[C@]12C [Compound 14c] | 0.0425 °C | 0% | 3.2% | – | – | – | – | – | – | – |
| Cc1ccc2[nH]c3c(c(=O)c2c1)C[C@@H]1C[C@H](O)CC[C@]31C [Compound 12] | 0.169 °C | -6.7% | 0% | – | – | – | – | – | – | – |
| CC12CCC3CC1CCC21C(=Nc2ccc(NCc4ccccc4)cc21)O3 (centres unmarked) [Compound 19b] | 2.2 °C | 66.7% | -2.4% | > 80 µM | 19.3 µM | – | – | – | 5.3 °C | 21.8 µM |
| COc1ccc2[nH]c3c(c2c1)CC[C@@H]1C[C@H](O)CC[C@]31C [Compound 10f] | 0.159 °C | 11.7% | 0% | – | – | – | – | – | – | – |
| C[C@]12CC[C@@H](O)C[C@H]1CCC[C@]21Nc2ccccc2-n2cccc21 [Compound 4] | 0.138 °C | 5.8% | – | – | – | 0.276 °C | 30.0% | -5.6% | – | – |
| CCCCN(C)c1ccc2c(c1)[C@@]13CC[C@@H]4C[C@@H](CC[C@@]41C)OC3=N2 [Compound 19d] | 4.5 °C | 93.3% | -5% | > 80 µM | 11.9 µM | – | – | – | 7.4 °C | 6.26 µM |
| Cc1ccc2c(c1)[C@@]13CC[C@@H]4C[C@@H](CC[C@@]41C)OC3=N2 [Compound 15e] | 0.8 °C | 8.3% | 7% | > 80 µM | – | – | – | – | – | – |
| C[C@]12CC[C@@H](O)C[C@H]1CCc1c2nc2ccccc2c1-c1ccc(F)cc1 [Compound 2d] | 0.0936 °C | 5% | -2.4% | – | – | – | – | – | – | – |
| CC(C)Oc1ccc(C(=O)Nc2nc3c(s2)CN(C(=O)OC(C)(C)C)CC3)cc1 [Autogramin-2, reference compound] | – | – | – | > 80 µM | > 30 µM | 0.211 °C | 57.5% | -1.6% | – | 4.26 µM |
